Measurements published in PubChem BioAssay AID2060610 (Molecular Pharmacology Branch, DTP, NCI, 2025).
Where “and” joins values, the source holds several entries; their conditions need not be identical. Equal values may be shown once.

Test system: 616215-338-R-J1-PDC complex spheroids, viability % test/control
Assay: Anticancer human tumor 616215-338-R-J1-PDC patient-derived colon adenocarcinoma cell line growth inhibition [CLK]
Conditions: for viability, T/C: stronger effect = lower value
Text: A high-throughput screen of multi-cell type tumor spheroids was designed to identify active combinations of […] and targeted small molecules. Complex spheroids include a stromal component modeled by human endothelial cells (HUVEC) and fibroblasts modeled by human mesenchymal stem cells (MSCs). The concentration ranges selected for each drug and investigational agent were based upon clinically achievable concentrations if the clinical Cmax of the agent was known.
Compounds. The drugs and investigational agents: cirtuvivint (SM08502; NSC835563), CC-671 (NSC850746), vemurafenib (NSC761431), tapotoclax (NSC804041), sotorasib (NSC818433), adagrasib (NSC831453), MRTX-1133 (NSC836407), BAY2416964 (NSC825713), copanlisib (NSC816437), inavolisib (NSC800729), abemaciclib (NSC768073), osimertinib (NSC779217), entinostat (NSC756642), eltanexor (KPT-8602, NSC794443), venetoclax (NSC766270), ceralasertib (NSC777638), bortezomib (NSC756655), olaparib (NSC753686), talazoparib (NSC767125), alisertib (NSC759677), peposertib (NSC802822), gemcitabine (NSC613327), 5-fluorouracil (NSC19893), SN-38 (NSC673596), oxaliplatin (NSC266046), paclitaxel (NSC125973), and doxorubicin (NSC123127), were obtained from the National Cancer Institute (NCI) Developmental Therapeutics Program Chemical Repository. The FDA-approved anticancer drug set is available from the Developmental Therapeutics Program at https://dtp.cancer.gov/organization/dscb/obtaining/available plates.htm. […] The stock solutions were prepared in dimethyl sulfoxide (DMSO, Sigma-Aldrich, St. Louis, MO, cat. D2650), except for the platinum complexes which were prepared in saline (Quality Biological, Gaithersburg, MD, cat. 114-055-101), at 800-fold the tested concentration and stored at -70 degrees C prior to their use. All drugs and investigational agents were tested over a range starting from a high concentration at or near the clinical Cmax and decreasing in half-log increments. If the clinical Cmax for an agent had not been determined, the highest concentration tested was 10 microM.
Cell Culture. All cells were maintained in an incubator at 37 degrees C and 5% CO2 with 95% humidity. The PDC lines were cultured according to standard operating procedures established by the NCI PDMR. Briefly, all PDCs were thawed and cultured in Matrigel-coated flasks prepared with a working solution of 1X Ham's F-12 nutrient mix, without supplementation (Invitrogen, Waltham, MA, cat. 11765054), 100 U/mL penicillin-streptomycin (Invitrogen, cat. 15140122), and 2.5% Matrigel (Corning Inc., Corning, NY, cat. 354248) for the first three passages. The 947758-054-R-J2-PDC line was cultured in 6B/Colon 1A media, which includes advanced DMEM/F-12 (Thermo Fisher Scientific, cat. 12634028), 10 mM HEPES (Thermo Fisher Scientific, cat. 15630080), 1X GlutaMAX supplement (Thermo Fisher Scientific, cat. 35050061), 0.1 mg/mL primocin (InvivoGen, cat. ant-pm-2), 10% defined fetal bovine serum, heat inactivated (HyClone Laboratories Inc., cat. SH30070.03HI), 1.25 mM N-Acetyl-L-cysteine (Sigma-Aldrich, cat. A9165), 10 mM nicotinamide (Sigma-Aldrich, cat. N0636), 1X B-27 supplement (Thermo Fisher Scientific, cat. 17504044), 1X N-2 supplement (Thermo Fisher Scientific, cat. 17502048), and 10 microM Y-27632 dihydrochloride (Tocris Bioscience, cat. 1254). The 876862-298-R-J1-PDC was cultured in 6E media, which includes all 6B/Colon 1A media components plus 50% L-WRN conditioned media (ATCC, cat. CRL-3276), 50 ng/mL recombinant human EGF recombinant protein (hEGF; Thermo Fisher Scientific, cat. PHG0311), 10 ng/mL recombinant human fibroblast growth factor 10 (hGFG-10; PeproTech, cat. 100-26), 1 ng/mL recombinant human fibroblast growth factor 2 (hFGF-2; PeproTech, cat. 100-18B), and 1 µM prostaglandin E2 (PGE2; Tocris, cat. 2296). The 227483-062-R1-J1-PDC line was cultured in Panc media, containing all 6E components except hFGF-2, with the addition of 500 nM SB-431542 (Selleckchem, cat. S1067) and 10 nM gastrin (Tocris, cat. 3006). […]

[1] = curve of first compound, second compound 0.0316 µM
[2] = curve of first compound, second compound 0.1 µM
[3] = curve of first compound, second compound 0.316 µM
[4] = curve of first compound, second compound 1 µM
[5] = curve of first compound, second compound 3.16 µM
[6] = curve of first compound, second compound 10 µM
[7] = second compound 0.0316 µM, first compound 0.00316 µM
[8] = second compound 0.0316 µM, first compound 0.01 µM
[9] = second compound 0.0316 µM, first compound 0.0316 µM
[10] = second compound 0.0316 µM, first compound 0.1 µM
[11] = second compound 0.0316 µM, first compound 0.316 µM
[12] = second compound 0.0316 µM, first compound 1 µM
[13] = second compound 0.1 µM, first compound 0.00316 µM
[14] = second compound 0.1 µM, first compound 0.01 µM
[15] = second compound 0.1 µM, first compound 0.0316 µM
[16] = second compound 0.1 µM, first compound 0.1 µM
[17] = second compound 0.1 µM, first compound 0.316 µM
[18] = second compound 0.1 µM, first compound 1 µM
[19] = second compound 0.316 µM, first compound 0.00316 µM
[20] = second compound 0.316 µM, first compound 0.01 µM
[21] = second compound 0.316 µM, first compound 0.0316 µM
[22] = second compound 0.316 µM, first compound 0.1 µM
[23] = second compound 0.316 µM, first compound 0.316 µM
[24] = second compound 0.316 µM, first compound 1 µM
[25] = second compound 1 µM, first compound 0.00316 µM
[26] = second compound 1 µM, first compound 0.01 µM
[27] = second compound 1 µM, first compound 0.0316 µM
[28] = second compound 1 µM, first compound 0.1 µM
[29] = second compound 1 µM, first compound 0.316 µM
[30] = second compound 1 µM, first compound 1 µM
[31] = second compound 3.16 µM, first compound 0.00316 µM
[32] = second compound 3.16 µM, first compound 0.01 µM
[33] = second compound 3.16 µM, first compound 0.0316 µM
[34] = second compound 3.16 µM, first compound 0.1 µM
[35] = second compound 3.16 µM, first compound 0.316 µM
[36] = second compound 3.16 µM, first compound 1 µM
[37] = second compound 10 µM, first compound 0.00316 µM
[38] = second compound 10 µM, first compound 0.01 µM
[39] = second compound 10 µM, first compound 0.0316 µM
[40] = second compound 10 µM, first compound 0.1 µM
[41] = second compound 10 µM, first compound 0.316 µM
[42] = second compound 10 µM, first compound 1 µM
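Also: spheroids exposed to agents for 7 days.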
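For viability, T/C in this document: 100% = DMSO vehicle wells.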

## CCN1CCN(Cc2ccc(Nc3ncc(F)c(-c4cc(F)c5nc(C)n(C(C)C)c5c4)n3)nc2)CC1 + CNC(=O)c1ccc(Nc2nc(OC3CCCC3)c3c(-c4ccc5nc(C)oc5c4)c[nH]c3n2)c(OC)c1
[1]
  IC50: 0.928 µM
[2]
  IC50: 0.285 µM
[3]
  IC50: < 0.00316 µM
[4]
  IC50: 0.136 µM
[5]
  IC50: 0.357 µM
[6]
  IC50: < 0.00316 µM
[7]
  viability, T/C: 83%
[8]
  viability, T/C: 93.2%
[9]
  viability, T/C: 95.5%
[10]
  viability, T/C: 137%
[11]
  viability, T/C: 130%
[12]
  viability, T/C: 46%
[13]
  viability, T/C: 51.6%
[14]
  viability, T/C: 55%
[15]
  viability, T/C: 56.3%
[16]
  viability, T/C: 58%
[17]
  viability, T/C: 48.1%
[18]
  viability, T/C: 26.7%
[19]
  viability, T/C: 45.5%
[20]
  viability, T/C: 49.2%
[21]
  viability, T/C: 53.5%
[22]
  viability, T/C: 50.3%
[23]
  viability, T/C: 47.9%
[24]
  viability, T/C: 28.2%
[25]
  viability, T/C: 51.8%
[26]
  viability, T/C: 49.1%
[27]
  viability, T/C: 59.6%
[28]
  viability, T/C: 55%
[29]
  viability, T/C: 39.5%
[30]
  viability, T/C: 28.6%
[31]
  viability, T/C: 47.4%
[32]
  viability, T/C: 50.3%
[33]
  viability, T/C: 53%
[34]
  viability, T/C: 54.1%
[35]
  viability, T/C: 61.2%
[36]
  viability, T/C: 22.7%
[37]
  viability, T/C: 41.6%
[38]
  viability, T/C: 46.8%
[39]
  viability, T/C: 58.5%
[40]
  viability, T/C: 52.2%
[41]
  viability, T/C: 46%
[42]
  viability, T/C: 29.2%

## CCN1CCN(Cc2ccc(Nc3ncc(F)c(-c4cc(F)c5nc(C)n(C(C)C)c5c4)n3)nc2)CC1 + CN1CCN(c2cc(C(=O)Nc3cc4cc(-c5cnn(C)c5)ccc4cn3)ccn2)CC1
[1]
  IC50: 0.951 µM
[2]
  IC50: 0.885 µM
[3]
  IC50: < 0.00316 µM
[4]
  IC50: < 0.00316 µM
[5]
  IC50: < 0.00316 µM
[6]
  IC50: < 0.00316 µM
[7]
  viability, T/C: 111%
[8]
  viability, T/C: 105%
[9]
  viability, T/C: 112%
[10]
  viability, T/C: 149%
[11]
  viability, T/C: 175%
[12]
  viability, T/C: 46.2%
[13]
  viability, T/C: 114%
[14]
  viability, T/C: 131%
[15]
  viability, T/C: 116%
[16]
  viability, T/C: 154%
[17]
  viability, T/C: 120%
[18]
  viability, T/C: 41.6%
[19]
  viability, T/C: 32.6%
[20]
  viability, T/C: 32.6%
[21]
  viability, T/C: 37.6%
[22]
  viability, T/C: 48.6%
[23]
  viability, T/C: 42.6%
[24]
  viability, T/C: 12.8%
[25]
  viability, T/C: 0.15%
[26]
  viability, T/C: 0.73%
[27]
  viability, T/C: 1.7%
[28]
  viability, T/C: 0.2%
[29]
  viability, T/C: 2.07%
[30]
  viability, T/C: 1.73%
[31]
  viability, T/C: 0.15%
[32]
  viability, T/C: 0.16%
[33]
  viability, T/C: 0.15%
[34]
  viability, T/C: 0.13%
[35]
  viability, T/C: 0.76%
[36]
  viability, T/C: 0.18%
[37]
  viability, T/C: 0.2%
[38]
  viability, T/C: 0.19%
[39]
  viability, T/C: 2.8%
[40]
  viability, T/C: 0.2%
[41]
  viability, T/C: 3.09%
[42]
  viability, T/C: 0.2%

## C#Cc1c(F)ccc2cc(O)cc(-c3ncc4c(N5CC6CCC(C5)N6)nc(OCC56CCCN5CC(F)C6)nc4c3F)c12 (stereo not drawn) + CN1CCN(c2cc(C(=O)Nc3cc4cc(-c5cnn(C)c5)ccc4cn3)ccn2)CC1
[1]
  IC50: > 10 µM
[2]
  IC50: > 10 µM
[3]
  IC50: < 0.0316 µM
[4]
  IC50: < 0.0316 µM
[5]
  IC50: < 0.0316 µM
[6]
  IC50: < 0.0316 µM
[9]
  viability, T/C: 93.7%
[10]
  viability, T/C: 91.2%
[11]
  viability, T/C: 109%
[12]
  viability, T/C: 102%
Second compound 0.0316 µM, first compound 3.16 µM
  viability, T/C: 106%
Second compound 0.0316 µM, first compound 10 µM
  viability, T/C: 99.1%
[15]
  viability, T/C: 101%
[16]
  viability, T/C: 103%
[17]
  viability, T/C: 94.7%
[18]
  viability, T/C: 101%
Second compound 0.1 µM, first compound 3.16 µM
  viability, T/C: 102%
Second compound 0.1 µM, first compound 10 µM
  viability, T/C: 74.7%
[21]
  viability, T/C: 36.2%
[22]
  viability, T/C: 38.8%
[23]
  viability, T/C: 30%
[24]
  viability, T/C: 33.3%
Second compound 0.316 µM, first compound 3.16 µM
  viability, T/C: 24.7%
Second compound 0.316 µM, first compound 10 µM
  viability, T/C: 18.8%
[27]
  viability, T/C: 0.17%
[28]
  viability, T/C: 0.82%
[29]
  viability, T/C: 0.2%
[30]
  viability, T/C: 0.18%
Second compound 1 µM, first compound 3.16 µM
  viability, T/C: 0.17%
Second compound 1 µM, first compound 10 µM
  viability, T/C: 0.71%
[33]
  viability, T/C: 0.13%
[34]
  viability, T/C: 2.81%
[35]
  viability, T/C: 0.12%
[36]
  viability, T/C: 0.12%
Second compound 3.16 µM, first compound 3.16 µM
  viability, T/C: 0.13%
Second compound 3.16 µM, first compound 10 µM
  viability, T/C: 3.3%
[39]
  viability, T/C: 0.18%
[40]
  viability, T/C: 1.06%
[41]
  viability, T/C: 0.16%
[42]
  viability, T/C: 0.18%
Second compound 10 µM, first compound 3.16 µM
  viability, T/C: 0.18%
Second compound 10 µM, first compound 10 µM
  viability, T/C: 2.17%

## COc1ccc([C@@H](O)c2cc(-c3ncnc4cc(N5CCOCC5)ccc34)c(F)cc2Cl)nn1
Compound 0.0316 µM
  viability, T/C: 102% and 93.5%
Compound 0.1 µM
  viability, T/C: 106% and 104%
Compound 0.316 µM
  viability, T/C: 111% and 108%
Compound 1 µM
  viability, T/C: 107% and 99.3%
Compound 3.16 µM
  viability, T/C: 112% and 118%
Compound 10 µM
  viability, T/C: 77.8% and 78.4%
Curve of compound
  IC50: > 10 µM
